Converted amounts (≈) assume the structure as drawn. Read-outs that look alike come from different tables or passages of the source.
Tests used:
Assay type in all cases: cell-based
E. coli K12 = assay: MIC assay, E. coli K12; settings: Escherichia coli, K12, E. coli K12 (Gram-negative), overnight (16-20 hour) incubation
Protocol: (§1) The antimicrobial activity of a selection of compounds were evaluated in a Gram-negative, Gram-positive and multi-resistant bacteria using the standard minimum inhibitory concentration (MIC) assay for an overnight (16-20 hour) incubation period. Commercially marketed antibiotics (Table 3) were used as positive controls during the study.
(§2) Mueller-Hinton broth (MH Broth) (Sigma-Aldrich; Millipore, cat. no. 70192) and Mueller-Hinton agar (MHA) (Sigma-Aldrich; Millipore, cat. no. 70191) were prepared as per manufacturer's instructions and sterilized by autoclaving. Approximately 20 mL of MHA was poured onto 15×100 mm petri dishes and allowed to set. Agar plates were then stored in plastic bags in an inverted position at 4° C.
(§3) Bacterial strains were provided in the form of a glycerol stock, stored at −80° C. For the purpose of preparation of bacterial suspension, appropriate strains were removed from −80° C. storage onto dry ice and not allowed to freeze-thaw.
(§4) Stock solutions of 16, 45 and 73 were provided in DMSO at 1.28 mg/mL concentration. From this stock solution, working solutions of the desired concentration were prepared by diluting with MHB.
(§5) MIC assay methodology was adapted from previously published work.
(§6) Bacterial isolate to be tested was streaked onto a nutrient-rich MH agar plate and incubated overnight at 37° C. in order to obtain single colonies.
(§7) After overnight incubation, single colonies with the same morphological appearance were chosen from the agar plate. These were touched using a sterile loop and transferred into a tube containing 10 mL of a MH broth. They were then mixed using vortex mixer and incubated at 35-37° C. in a shaker at 200 r.p.m. overnight.
(§8) Determination of OD600 and cfu/mL count OD600 (the optical density of a sample measured at a wavelength of 600 nm) of the overnight culture was measured. Because of the loss of linearity at OD600 values […], it was necessary to dilute the sample until the OD600 value was below 1.0. For all tested bacteria, a dilution of 1:10 was appropriate (100 μL in 900 μL broth).
(§9) The overnight culture was then diluted 1:100 using sterile tubes and MH broth (dilution: 10^−2). Serial dilution was then performed six times until dilution of 10^−8 was reached. 100 μL of dilutions 10^−7 and 10^−8 were plated onto MH agar plates in triplicate using a sterile cell spreader and incubated overnight at 37° C.
(§10) After overnight incubation, colonies on plates were counted and cfu per mL calculated. The following formula was applied: […]
For the generation of overnight cultures to be used for preparation of the bacterial suspension for MIC tests, a single colony of bacteria was selected using a sterile loop and a sterile tube with MH broth was inoculated followed by overnight incubation at […] in a shaker set to 200 r.p.m.
After overnight incubation, the OD600 was measured and the overnight culture was diluted accordingly to obtain 1×10^8 cfu/mL.
Free payload dilutions were prepared as per Table 4.
96-well sterile microtiter plates were used for MIC assay. The plate was filled with the respective free payload or positive control antibiotic concentrations in triplicate. 100 μL of broth was pipetted in the sterility control well (SC, column 12) and 50 μL in the growth control well (GC, column 11).
1×10^8 cfu/mL bacterial suspension was diluted 1:100 and 50 μL added to each well apart from SC. […]
(§11) The 96-well plates were read using a SpectraMax plate reader at an absorbance of 600 nm. […]

[1] = system: Klebsiella pneumoniae KP4631; assay: MIC assay, Klebsiella pneumoniae KP4631
Protocol: as §1, §2, §3, §4, §5, §6, §7, §8, §9, §10
(§12) After overnight incubation, the OD600 was measured and the overnight culture was diluted accordingly to obtain 1×10^8 cfu/mL. […]
as §11

EMRSA 16 = assay: MIC assay, EMRSA 16; settings: Staphylococcus aureus
Protocol: as §1, §2, §3, §4, §5, §6, §7, §8, §9, §10, §12, §11

A431 (Skin) = assay: In vitro cytotoxicity, MTT assay, A431; settings: Homo sapiens, read-out: Cytotoxicity
Protocol: (§13) The in vitro cytotoxicity of a selection of compounds were evaluated in a panel of cell lines using the standard MTT assay for a 72 hour incubation period (Table 2). Free payloads produced cytotoxicities in the nanomolar range.
(§14) Tumor cell lines were maintained in RPMI1640 medium supplemented with 10% heat-inactivated fetal bovine serum, 2 mM L-glutamine and 1 mM sodium pyruvate. 1800 cells per well were seeded in a volume of 180 μl in a 96-well flat bottom polystyrene plate. The cells were allowed to adhere overnight at 37° C. in a CO2 incubator. Ligands were initially formulated in DMSO, and stocks stored at −80° C. They were then further formulated at lox concentration in RPMI1640 medium. 20 ul of diluted samples were added into each treatment well. On each plate, blank wells with no cells, and untreated wells containing cells, were included. Plates were then cultured at 37° C. in a CO2 incubator for 72 hrs. Cytotoxicity was evaluated using a tetrazolium salt-based assay, the MTT assay. After 72 hours, the supernatant was removed from each well and 200 μl of a sterile filtered 500 μg/ml MTT solution in water added to each well. The plates were then incubated at 37° C. in a CO2 incubator for 4 hrs. The supernatant was then removed and the formazan crystals formed solubilized by adding 150 μl of DMSO to each well. The plate was then read on a plate reader at 540 nm, and percentage cell survival calculated as follows: ((mean absorbance treated wells at concentration x−mean absorbance blank wells)+(mean absorbance untreated wells at concentration x−mean absorbance blank wells))×100. Data were plotted as concentration in nM vs. % cell survival in Microsoft Excel, and IC50 values (concentration where cell survival is reduced by a half) were determined from the graph.

U138-MG (Glioblastoma) = assay: In vitro cytotoxicity, MTT assay, U138-MG; settings: Homo sapiens, read-out: Cytotoxicity
Protocol: as §13, §14

REH (ALL) = assay: In vitro cytotoxicity, MTT assay, REH; settings: read-out: Cytotoxicity
Protocol: as §13, §14

[2] = A-431, A431 (Skin), MTT, 72 hour incubation
[3] = U138-MG (Glioblastoma), MTT, 72 hour incubation
[4] = REH (ALL), MTT, 72 hour incubation

| Compound | IC50 (A431 (Skin); [2]) | IC50 (U138-MG (Glioblastoma); [3]) | IC50 (REH (ALL); [4]) | other results |
| --- | --- | --- | --- | --- |
| COC(=O)c1cc(-c2ccc(NC(=O)c3cc(NC(=O)CCCOc4cc5c(cc4OC)C(=O)N4CCCC[C@H]4CN5)cn3C)cc2)cn1C [Compound 45, Methyl (S)-4-(4-(4-(4-((2-methoxy-12-oxo-5,6,6a,7,8,9,10,12-octahydrobenzo[e]pyrido[1,2-a][1,4]diazepin-3-yl)oxy)butanamido)-1-methyl-1H-pyrrole-2-carboxamido)phenyl)-1-methyl-1H-pyrrole-2-carboxylate] |  |  |  | MIC (E. coli K12): > 128 µg/mL; MIC ([1]; Klebsiella pneumoniae, KP4631): > 128 µg/mL; MIC (EMRSA 16): 0.5 µg/mL (≈ 0.732 µM) |
| COC(=O)c1nc2cc(NC(=O)c3nc(NC(=O)CCCOc4cc5c(cc4OC)C(=O)N4CCCC[C@H]4CN5)cn3C)ccc2o1 [Compound 61, Methyl (S)-5-(4-(4-((2-methoxy-12-oxo-5,6,6a,7,8,9,10,12-octahydrobenzo[e]pyrido[1,2-a][1,4]diazepin-3-yl)oxy)butanamido)-1-methyl-1H-imidazole-2-carboxamido)benzo[d]oxazole-2-carboxylate] | > 1000 nM | > 1000 nM | > 1000 nM |  |
| COc1cc2c(cc1OCCCC(=O)Nc1cc(C(=O)Nc3ccc(-c4cc(C(=O)Nc5ccccc5)n(C)c4)cc3)n(C)c1)NC[C@@H]1CCCCN1C2=O [Compound 67, (S)-4-(4-((2-Methoxy-12-oxo-5,6,6a,7,8,9,10,12-octahydrobenzo[e]pyrido-[1,2-a][1,4]diazepin-3-yl)oxy)butanamido)-1-methyl-N-(4-(1-methyl-5-(phenylcarbamoyl)-1H-pyrrol-3-yl)phenyl)-1H-pyrrole-2-carboxamide] |  |  |  | IC50 (A431 (Skin); A-431, 72 h): 25.9 nM; IC50 (U138-MG (Glioblastoma); U138-MG, 72 h): 57.2 nM; IC50 (REH (ALL); 72 h): 29.4 nM |
| COc1cc2c(cc1OCCCC(=O)Nc1cc(C(=O)Nc3ccc(-c4cc(C(=O)Nc5ccc(NC(C)=O)cc5)n(C)c4)cc3)n(C)c1)NC[C@@H]1CCCCN1C2=O [Compound 70, (S)—N-(4-Acetamidophenyl)-4-(4-(4-(4-((2-methoxy-12-oxo-5,6,6a,7,8,9,10, 12-octahydrobenzo[e]pyrido[1,2-a][1,4]diazepin-3-yl)oxy)butanamido)-1-methyl-1H-pyrrole-2-carboxamido)phenyl)-1-methyl-1H-pyrrole-2-carboxamide] | 11.3 nM | 93.6 nM | 42.5 nM |  |
| COc1cc2c(cc1OCCCC(=O)Nc1cc(C(=O)Nc3ccc(-c4cc(C(=O)Nc5ccncc5)n(C)c4)cc3)n(C)c1)NC[C@@H]1CCCCN1C2=O [Compound 73, (S)-4-(4-((2-Methoxy-12-oxo-5,6,6a,7,8,9,10,12-octahydrobenzo[e]pyrido-[1,2-a][1,4]diazepin-3-yl)oxy)butanamido)-1-methyl-N-(4-(1-methyl-5-(pyridin-4-ylcarbamoyl)-1H-pyrrol-3-yl)phenyl)-1H-pyrrole-2-carboxamide] | 144 nM | 301 nM | 37.5 nM | MIC (E. coli K12): 2 µg/mL (≈ 2.69 µM); MIC ([1]; Klebsiella pneumoniae, KP4631): 4 to 8 µg/mL (≈ 5.37 to 10.7 µM); MIC (EMRSA 16): 0.5 µg/mL (≈ 0.671 µM) |
| COc1cc2c(cc1OCCCC(=O)Nc1cc(C(=O)Nc3ccc(-c4cc(C(=O)Nc5ccc(N)cc5)n(C)c4)cc3)n(C)c1)NC[C@@H]1Cc3ccccc3N1C2=O [Compound 106, (S)—N-(4-Aminophenyl)-4-(4-(4-(4-((8-methoxy-6-oxo-11,12,12a,13-tetrahydro-6H-benzo[5,6][1,4]diazepino[1,2-a]indol-9-yl)oxy)butanamido)-1-methyl-1H-pyrrole-2-carboxamido)phenyl)-1-methyl-1H-pyrrole-2-carboxamide] | 26.7 nM | 84 nM | 24 nM |  |
| COc1cc2c(cc1OCCCC(=O)Nc1cc(C(=O)Nc3ccc(-c4cc(C(=O)Nc5ccc(N)cc5)n(C)c4)cc3)n(C)c1)NC[C@@H]1Cc3ccccc3CN1C2=O [Compound 119, (S)—N-(4-Aminophenyl)-4-(4-(4-(4-((2-methoxy-14-oxo-5,6,6a,7,12,14-hexahydrobenzo[5,6][1,4]diazepino[1,2-b]isoquinolin-3-yl)oxy)butanamido)-1-methyl-1H-pyrrole-2-carboxamido)phenyl)-1-methyl-1H-pyrrole-2-carboxamide] | 43.1 nM | 266 nM | 173 nM |  |
| COC(=O)c1cc(-c2ccc(NC(=O)c3cc(NC(=O)CCCOc4cc5c(cc4OC)C(=O)N4Cc6ccccc6C[C@H]4CN5)cn3C)cc2)cn1C [Compound 121, Methyl (S)-4-(4-(4-(4-((2-methoxy-14-oxo-5,6,6a,7,12,14-hexahydrobenzo-[5,6][1,4]diazepino[1,2-b]isoquinolin-3-yl)oxy)butanamido)-1-methyl-1H-pyrrole-2-carboxamido)phenyl)-1-methyl-1H-pyrrole-2-carboxylate] | 13.4 nM | 43.8 nM | 11.6 nM |  |
| NC[C@H]1O[C@H](O[C@H]2[C@H](O)[C@@H](O[C@H]3O[C@H](CO)[C@@H](O)[C@H](N)[C@H]3O)[C@H](N)C[C@@H]2N)[C@H](O)[C@@H](O)[C@@H]1O [Kanamycin, reference compound] |  |  |  | MIC (E. coli K12; read-out: MIC): 2 to 4 µg/mL (≈ 4.13 to 8.26 µM) |
| CN[C@H](CC(C)C)C(=O)N[C@H]1C(=O)N[C@@H](CC(N)=O)C(=O)N[C@H]2C(=O)N[C@H]3C(=O)N[C@H](C(=O)N[C@H](C(=O)O)c4cc(O)cc(O)c4-c4cc3ccc4O)[C@H](O)c3ccc(c(Cl)c3)Oc3cc2cc(c3O[C@@H]2O[C@H](CO)[C@@H](O)[C@H](O)[C@H]2O[C@H]2C[C@](C)(N)[C@H](O)[C@H](C)O2)Oc2ccc(cc2Cl)[C@H]1O [Vancomycin, reference compound] |  |  |  | MIC (EMRSA 16; EMRSA 16 (Gram-positive), overnight (16-20 hour) incubation, read-out: MIC): 1 µg/mL (≈ 0.69 µM) |
| Gentamicin [reference compound] |  |  |  | MIC ([1]; Klebsiella pneumoniae KP4631 (multi-resistant), overnight (16-20 hour) incubation): 1 to 2 µg/mL |
